Assay results as given in ChEMBL document CHEMBL6078645, “Expanding the Solvent/Protein Region Occupation of the Non-Nucleoside Reverse Transcriptase Inhibitor Binding Pocket for Improved Broad-Spectrum Anti-HIV-1 Efficacy: from Rigid Phenyl-Diarylpyrimidines to Flexible Hydrophilic Piperidine-Diarylpyrimidines” (J Med Chem, 2024).
In brackets after ≈: the same amount, converted by molar mass. Several values for one entry are separate records, joined by “and”; a condition that tells them apart may be missing. Equal entries are not always repeated.

Columns and labels:
[1] = Selectivity index, ratio of CC50 for cytotoxicity against human MT4 cells assessed as reduction in cell viability to EC50 for antiviral activity against wild type HIV-1 IIIB infected in human MT4 cells assessed as protection against virus-induced cytopathic effect; assay type: toxicity, cell-based; details: for selectivity ratio: MT4 cells, read-out: Ratio CC50/EC50
[2] = molecular target: T1, Human immunodeficiency virus type 1 reverse transcriptase (Human immunodeficiency virus 1, UniProt Q72547); test: Inhibition of wildtype recombinant HIV-1 Reverse transcriptase incubated for 40 mins by spectrofluorometric analysis
[3] = (§1) Cytotoxicity against human MT4 cells assessed as reduction in cell viability incubated for 5 days by MTT assay; assay type: toxicity, cell-based; details: MT4 cells, time 5 day
[4] = system: Human immunodeficiency virus 1; test: Antiviral activity against wild type HIV-1 IIIB infected in human MT4 cells assessed as protection against virus-induced cytopathic effect incubated for 5 days by MTT assay; assay type: functional, organism-based
[5] = system: Human immunodeficiency virus 1; test: Antiviral activity against HIV-1 harboring Y188L mutant infected in human MT4 cells assessed as protection against virus-induced cytopathic effect incubated for 5 days by MTT assay; assay type: functional, organism-based
[6] = system: Human immunodeficiency virus 1; test: Antiviral activity against HIV-1 harboring F227L/V106A double mutant infected in human MT4 cells assessed as protection against virus-induced cytopathic effect incubated for 5 days by MTT assay; assay type: functional, organism-based
[7] = system: Human immunodeficiency virus 1; test: Antiviral activity against HIV-1 harboring RES056 mutant infected in human MT4 cells assessed as protection against virus-induced cytopathic effect incubated for 5 days by MTT assay; assay type: functional, organism-based
[8] = system: Human immunodeficiency virus 1; test: Antiviral activity against HIV-1 harboring E138K mutant infected in human MT4 cells assessed as protection against virus-induced cytopathic effect incubated for 5 days by MTT assay; assay type: functional, organism-based; details: Human immunodeficiency virus 1, MT4, 120 h
[9] = system: Human immunodeficiency virus 1; test: Antiviral activity against HIV-1 harboring Y181C mutant infected in human MT4 cells assessed as protection against virus-induced cytopathic effect incubated for 5 days by MTT assay; assay type: functional, organism-based; details: Human immunodeficiency virus 1, MT4, 120 h
[10] = system: Human immunodeficiency virus 1; test: Antiviral activity against HIV-1 harboring L100I mutant infected in human MT4 cells assessed as protection against virus-induced cytopathic effect incubated for 5 days by MTT assay; assay type: functional, organism-based; details: Human immunodeficiency virus 1, MT4, 120 h
[11] = molecular target: T1, Human immunodeficiency virus type 1 reverse transcriptase; test: Inhibition of HIV-1 reverse transcriptase
[12] = system: Human immunodeficiency virus 1; test: Antiviral activity against HIV-1 harboring K103N mutant infected in human MT4 cells assessed as protection against virus-induced cytopathic effect incubated for 5 days by MTT assay; assay type: functional, organism-based; details: Human immunodeficiency virus 1, MT4, 120 h
CYP3A4 [13] = molecular target: T2, CYP3A4 (Homo sapiens, UniProt P08684); test: Inhibition of CYP3A4 in human liver microsome using midazolam as substrate preincubated with compound for 10 minutes followed NADPH addition and measured after 15 mins by LC-MS/MS analysis; assay type: ADME, microsomes; details: human, human liver microsomes, probe midazolam
T2 sequence (P08684 whole entry): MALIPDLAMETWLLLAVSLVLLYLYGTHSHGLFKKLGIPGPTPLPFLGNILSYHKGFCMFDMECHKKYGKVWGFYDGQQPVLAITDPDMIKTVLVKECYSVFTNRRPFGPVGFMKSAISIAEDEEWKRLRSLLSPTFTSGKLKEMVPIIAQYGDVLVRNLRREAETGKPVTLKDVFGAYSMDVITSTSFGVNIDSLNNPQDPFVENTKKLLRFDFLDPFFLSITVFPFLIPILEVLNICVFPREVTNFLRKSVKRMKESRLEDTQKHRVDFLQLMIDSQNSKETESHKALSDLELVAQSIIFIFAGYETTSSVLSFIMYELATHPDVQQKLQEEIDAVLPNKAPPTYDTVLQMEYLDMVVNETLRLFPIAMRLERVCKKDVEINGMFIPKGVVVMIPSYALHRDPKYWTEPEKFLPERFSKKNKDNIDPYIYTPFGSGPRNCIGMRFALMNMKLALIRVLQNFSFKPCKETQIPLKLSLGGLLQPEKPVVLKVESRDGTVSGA

CYP3A4 [14] = molecular target: T2, CYP3A4; test: Inhibition of CYP3A4 in human liver microsome using testosterone as substrate preincubated with compound for 10 minutes followed NADPH addition and measured after 15 mins by LC-MS/MS analysis; assay type: ADME, microsomes; details: human, human liver microsomes, probe testosterone
Cytochrome P450 2C19 = Cytochrome P450 2C19 (Homo sapiens, UniProt P33261); test: Inhibition of CYP2C19 in human liver microsome preincubated with compound for 10 minutes followed NADPH addition and measured after 15 mins by LC-MS/MS analysis; assay type: ADME, microsomes
Chain of Cytochrome P450 2C19 (P33261 whole entry): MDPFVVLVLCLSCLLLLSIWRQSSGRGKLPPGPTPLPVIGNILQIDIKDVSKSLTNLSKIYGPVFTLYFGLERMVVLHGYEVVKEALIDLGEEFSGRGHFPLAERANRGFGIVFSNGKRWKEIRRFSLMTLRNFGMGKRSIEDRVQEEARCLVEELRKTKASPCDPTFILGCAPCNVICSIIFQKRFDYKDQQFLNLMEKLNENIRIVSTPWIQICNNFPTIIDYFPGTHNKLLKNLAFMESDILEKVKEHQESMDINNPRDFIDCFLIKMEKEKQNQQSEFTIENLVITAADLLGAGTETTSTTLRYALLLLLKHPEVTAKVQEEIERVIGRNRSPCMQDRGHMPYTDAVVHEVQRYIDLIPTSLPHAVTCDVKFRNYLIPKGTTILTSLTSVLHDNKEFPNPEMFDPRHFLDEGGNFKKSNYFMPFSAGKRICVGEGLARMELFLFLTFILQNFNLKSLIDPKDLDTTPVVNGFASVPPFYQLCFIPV

CYP2D6 = CYP2D6 (Homo sapiens, UniProt P10635); test: Inhibition of CYP2D6 in human liver microsome preincubated with compound for 10 minutes followed NADPH addition and measured after 15 mins by LC-MS/MS analysis; assay type: ADME, microsomes; details: human, human liver microsomes
Chain of CYP2D6 (P10635 whole entry): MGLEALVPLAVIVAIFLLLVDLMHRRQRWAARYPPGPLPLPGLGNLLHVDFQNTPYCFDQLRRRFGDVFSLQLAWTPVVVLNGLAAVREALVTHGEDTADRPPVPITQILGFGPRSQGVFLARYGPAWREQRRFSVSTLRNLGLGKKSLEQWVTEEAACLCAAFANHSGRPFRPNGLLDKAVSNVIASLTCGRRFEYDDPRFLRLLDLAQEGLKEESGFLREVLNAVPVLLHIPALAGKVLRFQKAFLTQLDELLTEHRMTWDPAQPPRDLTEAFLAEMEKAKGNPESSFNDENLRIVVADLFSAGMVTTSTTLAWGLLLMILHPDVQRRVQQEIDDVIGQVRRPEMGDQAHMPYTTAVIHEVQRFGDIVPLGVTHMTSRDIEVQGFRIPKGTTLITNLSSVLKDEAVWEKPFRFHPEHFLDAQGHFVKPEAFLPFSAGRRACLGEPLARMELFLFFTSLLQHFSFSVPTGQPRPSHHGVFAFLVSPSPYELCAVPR

CYP2C9 = CYP2C9 (Homo sapiens, UniProt P11712); test: Inhibition of CYP2C9 in human liver microsome preincubated with compound for 10 minutes followed NADPH addition and measured after 15 mins by LC-MS/MS analysis; assay type: ADME, microsomes; details: human, human liver microsomes
Chain of CYP2C9 (P11712 whole entry): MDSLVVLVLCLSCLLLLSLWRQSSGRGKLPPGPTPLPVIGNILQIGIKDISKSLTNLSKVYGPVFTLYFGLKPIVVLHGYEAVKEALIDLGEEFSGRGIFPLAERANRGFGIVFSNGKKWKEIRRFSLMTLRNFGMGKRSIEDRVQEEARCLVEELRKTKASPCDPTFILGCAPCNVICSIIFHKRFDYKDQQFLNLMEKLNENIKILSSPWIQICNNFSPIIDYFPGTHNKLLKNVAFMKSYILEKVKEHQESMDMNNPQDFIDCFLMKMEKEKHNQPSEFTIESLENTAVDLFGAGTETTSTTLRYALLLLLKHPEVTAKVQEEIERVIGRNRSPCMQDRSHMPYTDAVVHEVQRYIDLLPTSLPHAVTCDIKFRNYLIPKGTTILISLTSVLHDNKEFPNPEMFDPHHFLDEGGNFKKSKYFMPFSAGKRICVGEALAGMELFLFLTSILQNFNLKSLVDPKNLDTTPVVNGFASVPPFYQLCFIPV

CYP1A2 = molecular target: T3, CYP1A2 (Homo sapiens, UniProt P05177); test: Inhibition of CYP1A2 in human liver microsome preincubated with compound for 10 minutes followed NADPH addition and measured after 15 mins by LC-MS/MS analysis; assay type: ADME, microsomes; details: human, human liver microsomes
T3 sequence (P05177 whole entry): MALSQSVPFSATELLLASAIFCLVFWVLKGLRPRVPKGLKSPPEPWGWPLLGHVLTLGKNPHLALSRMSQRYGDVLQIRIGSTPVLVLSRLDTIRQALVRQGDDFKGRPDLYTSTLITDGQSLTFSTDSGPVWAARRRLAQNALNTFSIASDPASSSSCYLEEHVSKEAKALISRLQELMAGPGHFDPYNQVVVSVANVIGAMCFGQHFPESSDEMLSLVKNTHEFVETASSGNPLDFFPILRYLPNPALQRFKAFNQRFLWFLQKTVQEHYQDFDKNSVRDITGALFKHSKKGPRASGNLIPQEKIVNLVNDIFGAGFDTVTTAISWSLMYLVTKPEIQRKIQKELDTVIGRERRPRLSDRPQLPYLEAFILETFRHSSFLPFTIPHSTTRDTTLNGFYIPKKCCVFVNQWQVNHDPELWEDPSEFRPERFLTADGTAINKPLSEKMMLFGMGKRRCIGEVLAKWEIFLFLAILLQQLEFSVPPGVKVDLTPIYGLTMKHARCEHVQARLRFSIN

MT4 = test: as §1; assay type: toxicity, cell-based; details: mt4, 120 h, 120 h, time 5 day
[15] = Solubility of compound in phosphate buffer at pH 2 incubated for 24 hrs by HPLC analysis; assay type: physicochemical
[16] = Solubility of compound incubated for 24 hrs by HPLC analysis; assay type: physicochemical
[17] = Solubility of compound in phosphate buffer at pH 7 incubated for 24 hrs by HPLC analysis; assay type: physicochemical
[18] = Solubility of compound in phosphate buffer at pH 7.4 incubated for 24 hrs by HPLC analysis; assay type: physicochemical
[19] = Human immunodeficiency virus 1, IIIB, MT4, 120 h
[20] = Human immunodeficiency virus 1, MT4, 120 h

SMILES | selectivity ratio [1] | IC50 [2] [nM] | CC50 at 120 h [3] [nM] | EC50 [4, 19] [nM] | EC50 [5, 20] [nM] | EC50 [6, 20] [nM] | EC50 [7, 20] [nM] | EC50 [8] [nM] | EC50 [9] [nM] | EC50 [10] [nM] | EC50 [12] [nM] | other results
Cc1cc(-c2ccncc2)cc(C)c1Oc1nc(NC2CCN(Cc3ccc(S(N)(=O)=O)cc3)CC2)ncc1CO | > 7620 | 192000 | > 218000 | 29 | 177 | 65 | 329 | – | – | – | – | –
Cc1cc(-c2ccc(C#N)cc2)cc(C)c1Oc1nc(NC2CCN(Cc3ccc(C#N)cc3)CC2)ncc1CO | 684 | 297 | 4830 | – | 59 | 71 | 294 | 21 | 22 | 9 | 6 | EC50 [11]: 7 nM
N#Cc1ccc(Nc2ncc(CO)c(Oc3c(F)cc(-c4ccc(C#N)cc4)cc3F)n2)cc1 | 256000 | – | 226000 | – | 161 | 1100 | 969 | 4 | 15 | 8 | 2 | IC50 at 15 min (CYP3A4 [13]): > 25000 nM; IC50 at 15 min (CYP3A4 [14]): > 25000 nM; EC50 [11]: 1 nM; IC50 (Cytochrome P450 2C19): 14000 nM; IC50 at 15 min (CYP2D6): > 25000 nM; IC50 at 15 min (CYP2C9): > 25000 nM; IC50 at 15 min (CYP1A2): > 25000 nM
Cc1cc(-c2ccncc2)cc(C)c1Oc1nc(NC2CCN(Cc3ccc(S(=O)(=O)NCCO)cc3)CC2)ncc1CO | 5080 | 186 | – | 28 | 466 | 285 | – | – | – | – | – | Ratio CC50/EC50 ([1]; mt4): > 5837; CC50 (MT4): > 210000 nM; EC50 ([4]; mt4): 36 nM; EC50 ([5]; mt4): 919 nM; EC50 ([6]; mt4): 403 nM; EC50 ([7]; mt4): 1230 nM and 2660 nM
Cc1cc(-c2ccncc2)cc(C)c1Oc1nc(NC2CCN(Cc3ccc(C(=O)NCCO)cc3)CC2)ncc1CO | > 5500 | 222 | > 215000 | 39 | 2010 | 2830 | 5680 | – | – | – | – | –
Cc1cc(-c2ccc(C#N)cc2)cc(C)c1Oc1nc(NC2CCN(Cc3ccc(S(N)(=O)=O)cc3)CC2)ncc1CO.Cl | – | – | – | – | – | – | – | – | – | – | – | solubility at 24 h [15]: > 56400 µg/mL; solubility at 24 h [16]: 5270 µg/mL; solubility at 24 h [17]: < 1 µg/mL; solubility at 24 h [18]: < 1 µg/mL
COCCNC(=O)c1ccc(CN2CCC(Nc3ncc(CO)c(Oc4c(C)cc(-c5ccncc5)cc4C)n3)CC2)cc1 | 11200 | – | 110000 | 10 | 46 | 64 | 58 | 50 | 34 | 11 | 5 | –
Cc1cc(-c2ccncc2)cc(C)c1Oc1nc(NC2CCN(Cc3ccc(C(N)=O)cc3)CC2)ncc1CO | > 24800 | 183 | > 232000 | 9 | 210 | 229 | 1470 | – | – | – | – | –
COCCNS(=O)(=O)c1ccc(CN2CCC(Nc3ncc(CO)c(Oc4c(C)cc(-c5ccncc5)cc4C)n3)CC2)cc1 | 5130 | – | 45900 | 9 | 48 | 122 | 157 | 48 | 39 | 9 | 7 | –
CNC(=O)c1ccc(CN2CCC(Nc3ncc(CO)c(Oc4c(C)cc(-c5ccncc5)cc4C)n3)CC2)cc1 | > 20200 | 253 | > 226000 | 11 | 122 | 133 | 925 | – | – | – | – | –
Cc1cc(-c2ccncc2)cc(C)c1Oc1nc(NC2CCN(Cc3cccc(C(N)=O)c3)CC2)ncc1CO | > 23800 | 188 | > 232000 | 10 | 101 | 98 | 883 | – | – | – | – | –
Cc1cc(-c2ccc(C#N)cc2)cc(C)c1Oc1nc(NC2CCN(Cc3ccc(S(=O)(=O)N4CCC(O)CC4)cc3)CC2)ncc1CO | – | 595 | – | – | – | 54 | 169 | 38 | 39 | 22 | 9 | CC50 (MT4): 3250 nM and 18400 nM; EC50 [11]: 8 nM and 9 nM; EC50 ([5]; mt4): 125 nM and 56 nM; EC50 ([6]; mt4): 51 nM; EC50 ([7]; mt4): 307 nM
COCCNC(=O)c1ccc(CN2CCC(Nc3ncc(CO)c(Oc4c(C)cc(-c5ccc(C#N)cc5)cc4C)n3)CC2)cc1 | 1860 | 509 | 17600 | – | 49 | 42 | 44 | 19 | 23 | 6 | 7 | EC50 [11]: 9 nM
Cc1cc(-c2ccncc2)cc(C)c1Oc1nc(NC2CCN(Cc3ccc(S(=O)(=O)N4CCC(O)CC4)cc3)CC2)ncc1CO | 750 | – | 17600 | 24 | 226 | 43 | 446 | – | – | – | – | –
Cc1cc(-c2ccc(C#N)cc2)cc(C)c1Oc1nc(NC2CCN(Cc3ccc(CO)cc3)CC2)ncc1CO | 1980 | – | 18400 | 9 | 56 | 51 | 307 | – | – | – | – | –
Cc1cc(-c2ccc(C#N)cc2)cc(C)c1Oc1nc(NC2CCN(Cc3cccc(C#N)c3)CC2)ncc1CO | 711 | 261 | 5810 | – | 51 | 122 | 990 | 55 | 18 | 12 | 16 | EC50 [11]: 8 nM
CNS(=O)(=O)c1ccc(CN2CCC(Nc3ncc(CO)c(Oc4c(C)cc(-c5ccncc5)cc4C)n3)CC2)cc1 | > 14800 | 198 | > 212000 | 14 | 100 | 234 | 405 | – | – | – | – | –
Cc1cc(C#N)cc(C)c1Oc1nc(Nc2ccc(C#N)cc2)nc(N)c1Br [ETRAVIRINE] | – | – | > 4610 | – | – | – | 37 | – | – | 6 | – | solubility at 24 h [15]: 127 µg/mL (≈ 292 µM); solubility at 24 h [16]: < 1 µg/mL; solubility at 24 h [17]: < 1 µg/mL; solubility at 24 h [18]: < 1 µg/mL
